# Values of other authors in US8217079B2 (priority 2010, dated 2012).
# System: PVR-1 gene expression
# Settings: sub-micromolar concentrations; peripheral blood of JAK2^V617F PV patients; cited from earlier work
smiles,measurement,value
"CCN(CC)Cc1ccc2cc(COC(=O)Nc3ccc(C(=O)NO)cc3)ccc2c1.Cl [ITF2357, Diethyl-[6-(4-hydroxycarbamoyl-phenylcarbamoyloxymethyl)-naphthalen-2-ylmethyl]-ammonium chloride]",PVR-1 gene expression in granulocytes,down-modulate
